Results: paper PMC6624388 (British Journal of Clinical Pharmacology, 2019)
Values after ≈ are worked out from the molar mass of the structure shown. Values joined by “and” are separate entries in the source; they are usually repeats but may differ in a detail not shown here. Equal entries are not always repeated. Where two headings read alike, the source gives them in different places.

What was measured:
[1] = type: in vivo, human
UGTs = conditions: ref unpublished results; cited from earlier work
[2] = Solubility in water and other physiological relevant media; type: physicochemical
[3] = Safety assessments in Parts 1 and 2; type: in vivo, human; conditions: both parts, healthy volunteers
[4] = cited from earlier work
Part 2 mass balance = type: in vivo, human
[5] = Stability of navoximod in human plasma; type: in vitro ADME; conditions: five freeze–thaw cycles; at least 110 days at −10°C to −30°C and −60°C to −80°C; 24 h at room temperature
tumour growth = conditions: in combination with anti‐PD‐L1, preclinical models; cited from earlier work
[6] = type: in vivo, human; remark: listed apart in the source
[7] = Part 2, oral 200 mg/600 μCi [14C]-navoximod

For `O[C@H](C[C@H]1c2c(F)cccc2-c2cncn21)[C@H]1CC[C@H](O)CC1` [navoximod], the AUC(0-t) ([1]; human, plasma, oral, 200 mg) was 4.4 µM·h, the “Total (urine + feces) % of dose” value ([1]; mean of eight subjects, oral 200 mg/600 μCi [14C]-navoximod) was 5.45 % of dose and the “Plasma % of TRA (share of total drug-derived exposure)” value ([1]; pooled 0–48 h plasma, n = 8, adjusted with extraction recovery, oral 200 mg/600 μCi [14C]-navoximod) was 7.00%. For the same compound, the “Feces % of dose” value ([1]; pooled faeces, mean of eight subjects, oral 200 mg/600 μCi [14C]-navoximod) was 3.79 % of dose, the “Urine % of dose” value ([1]; pooled urine, mean of eight subjects, oral 200 mg/600 μCi [14C]-navoximod) was 1.66 % of dose and the “major UGTs responsible for navoximod metabolism” value (UGTs) was “UGT1A9 and 2B7”. The solubility [2] was 200 mg/mL (≈ 632 mM), the tolerability ([3]; all IV (5 mg) and oral (200 mg) doses) was “generally well tolerated” and the “severity of adverse events” value ([3]; all IV and oral doses) was “mild”. The mean accumulation index ([4]; BID dosing) was “approximately 1.7”, the “half‐life” value ([4]; clinical studies, monotherapy or with atezolizumab) was “approximately 12 hours” and the “dose proportionality of exposure” value ([4]; dose range of 50–1000 mg) was “dose‐proportional increases in exposure”. The “tolerability of single and twice daily oral doses” value ([4]; monotherapy, up to 1000 mg, cancer patients) was “well tolerated”, the “recovery of total radioactivity in urine” value (Part 2 mass balance; % of administered dose, mean (± SD), oral 200 mg/600 μCi [14C]-navoximod) was 80.4% and the “navoximod as share of plasma total radioactivity, geometric mean AUC0‐∞ ratio” value (Part 2 mass balance; [7]) was 4.21%. The “navoximod as share of plasma total radioactivity, geometric mean C max ratio” value (Part 2 mass balance; [7]) was 10.6%, the “geometric mean whole blood to plasma AUC0‐∞ ratio for total radioactivity” value (Part 2 mass balance; Part 2, total radioactivity (parent and metabolites)) was 0.965 and the Fh (Part 2 mass balance; assuming Fg = 1) was “approximately 0.66”. For the same compound, the extrahepatic clearance (Part 2 mass balance; estimated) was 31.2 L/h, the “total radioactivity recovered in excreta within the first 72 h” value (Part 2 mass balance; first 72 h, oral 200 mg/600 μCi [14C]-navoximod) was 85.0% and the “Fh * Fg” value (Part 2 mass balance; from F and Fa) was 0.66. For the same compound, the AUC(0-inf) (Part 2 mass balance; human, plasma, po, 200 mg) was 1540 ng·h/mL, the AUC(0-t) (Part 2 mass balance; human, plasma, po, 200 mg) was 1510 ng·h/mL and the Cmax (Part 2 mass balance; human, plasma, po, 200 mg) was 464 ng/mL. The Vd/F (Part 2 mass balance; human, plasma, po, 200 mg) was 1680 L, the half-life (Part 2 mass balance; human, plasma, po, 200 mg) was 9.41 h and the CL renal (Part 2 mass balance; human, urine and plasma, oral, 200 mg) was 20.3 mL/min. The “hepatic clearance (CLhep = [1 − Fh] * Qh)” value (Part 2 mass balance; in vivo) was 29.6 L/h, the “fraction of metabolism (fm)” value (Part 2 mass balance; oral 200 mg) was 0.98 and the “hepatic first pass extraction” value (Part 2 mass balance; oral 200 mg) was ~ 34%. The “fraction of the dose absorbed (Fa)” value (Part 2 mass balance; sum of radioactivity in urine and metabolites in faeces, as fraction) was 0.841, the “stability in human plasma” value [5] was “stable” and the “effect on tumour growth” value (tumour growth) was “inhibits tumour growth compared to either treatment alone”. For the same compound, the “total IV clearance relative to blood flow” value ([6]; IV 5 mg) was ~ 71 % of blood flow, the “CL/F (apparent oral clearance)” value ([6]; Part 1, healthy volunteers, oral 200 mg tablet, fasted, n = 16, geometric mean (geometric CV%)) was 112 L/h and 112 (31.4) L/h and the AUC(0-inf) ([6]; human, plasma, iv, 5 mg) was 80.6 ng·h/mL. The AUC(0-t) ([6]; human, plasma, iv, 5 mg) was 79.1 ng·h/mL, the Cmax ([6]; human, plasma, iv, 5 mg) was 114 ng/mL and the Tmax ([6]; human, plasma, iv, 5 mg) was 5 min. It also gave a Vd ([6]; human, plasma, iv, 5 mg) of 1120 L, a clearance ([6]; human, plasma, iv, 5 mg) of 1030 mL/min and a half-life ([6]; human, plasma, iv, 5 mg) of 12.6 h. It also gave a bioavailability ([6]; human, plasma, oral, 200 mg) of 55.5%, an AUC(0-inf) ([6]; human, plasma, po, 200 mg) of 1790 ng·h/mL and an AUC(0-t) ([6]; human, plasma, po, 200 mg) of 1770 ng·h/mL. For the same compound, the Cmax ([6]; human, plasma, po, 200 mg) was 683 ng/mL, the Vd/F ([6]; human, plasma, po, 200 mg) was 1780 L and the half-life ([6]; human, plasma, po, 200 mg) was 11 h.
